# Measured values: US20130189764A1, “SELECTIVE GROWTH MEDIA” (Oxide Limited, priority 2000, published 2013)
# What was measured:
# Format in all cases: cell-based
# [1] = system: Salmonella typhimurium and Salmonella worthington; assay: Bioscreen growth in Lab-Lemco broth (Example 9A), Salmonella strains; settings: 128 μg/ml, Lab-Lemco broth pH 6.0, 37° C.
# Method: (§1) […] […] Plates were then covered, incubated at 37° C., and the opacity of the organism suspensions measured using a Bioscreen instrument (a semi-automated microbiological growth analyser, available from Thermolabsystems, Ashford, Middlesex, U.K.).
# (§2) The results are shown in FIG. 13, which is a graph of optical density against time (in hours). The optical density readings were taken in “wide band” (wb) mode, i.e. using white light without any filter.
# [2] = system: Citrobacter freundii, Enterobacter aerogenes, Enterobacter cloacae; assay: Bioscreen growth in Lab-Lemco broth (Example 9A), other strains; settings: 128 μg/ml, Lab-Lemco broth pH 6.0, 37° C., other strains tested
# Method: as §1, §2
# [3] = system: Citrobacter freundii OCC 370; assay: mixed culture viable count in Nutrient Broth No. 2 (Example 9B); settings: 128 μg/ml, Nutrient Broth No. 2, mixed culture with Salmonella, 37° C.
# Method: (§3) L-Pyroglutamyl-L-aminoethylphosphonate was added to Oxoid Nutrient Broth No. 2 (final concentration=128 μg/ml) contained in a universal tube in a water bath at 37° C. Citrobacter freundii OCC 370 and Salmonella typhimurium OCC 626 were grown overnight in Nutrient Broth No. 2 at 37° C., diluted 1 in 1000 in Maximal Recovery Diluent and amounts added to the Nutrient Broth to give final concentrations of about 10^4 cfu/ml of each organism. At intervals samples were taken and spread on XLD and the number of red colonies with black centres enumerated as Salmonella and yellow ones as Citrobacter.
# (§4) The results are shown in FIG. 14, which is a graph of Log10 viable count (cfu/ml) against time (in hours). The plots for C. freundii are shown by lozenge symbols, whist those for S. typhimurium are shown by squares. Filled symbols and solid lines show results in the presence of Pyr-AEP, empty symbols and dotted lines show results in the absence of Pyr-AEP.
# [4] = system: Salmonella typhimurium OCC 626; assay: as above; settings: 128 μg/ml, Nutrient Broth No. 2, mixed culture with Citrobacter, 37° C.
# Method: as §3, §4
# [5] = system: Citrobacter freundii OCC261; assay: MIC from Bioscreen growth curves in various media (Example 13)
# Method: (§5) In general, media containing a higher concentration of short chain peptides, for example hydrolysed casein, reduced the effectiveness of the inhibitor. Thus, Pyr-AEP was dissolved in deionised water (51.2 mg/ml), filter sterilised, and amounts of the solution added to autoclaved Bacteriological Peptone, Casein Hydrolysate, Lab-Lemco broth and Proteose Peptone (20 g/l; pH 7.3) to give a dilution series of 1,477, 739, 369, 185 μg/ml. Volumes ([…]) of these solutions were then pipetted into the wells of Bioscreen microtitre plates and 30 μl quantities of 1 in 10,000 dilutions of overnight cultures of Citrobacter freundii OCC 261, Enterobacter aerogenes OCC 720, Salmonella enteritidis OCC 723 and Salmonella virchow OCC 703 added. Plates were then covered, incubated at 37° C., and the opacity of the organism suspensions, measured using a Bioscreen instrument.
# [6] = system: Enterobacter aerogenes OCC720; assay: as above
# Method: as §5
# [7] = system: Salmonella enteritidis OCC723; assay: as above
# Method: as §5
# [8] = system: Salmonella virchow OCC703; assay: as above
# Method: as §5
structure (smiles),measurement,setting,value
"C[C@H](NC(=O)[C@@H]1CCC(=O)N1)P(=O)(O)O [Pyr-AEP, L-pyroglutamyl-L-1-aminoethylphosphonic acid]",growth (optical density) in presence of the agent,[1],not inhibited
same,growth (optical density) in presence of the agent,[2],inhibited
same,effect on growth (Log10 viable count),[3],completely inhibitory
same,effect on growth (Log10 viable count),[4],no significant effect
same,Minimum inhibitory concentration,"[5]; Citrobacter freundii OCC261, Bacteriological Peptone",168 µg/mL
same,Minimum inhibitory concentration,"[5]; Citrobacter freundii OCC261, Casein Hydrolysate",>1343 µg/mL
same,Minimum inhibitory concentration,"[5]; Citrobacter freundii OCC261, Lab-Lemco",168 µg/mL
same,Minimum inhibitory concentration,"[5]; Citrobacter freundii OCC261, Proteose Peptone",1343 µg/mL
same,Minimum inhibitory concentration,"[6]; Enterobacter aerogenes OCC720, Bacteriological Peptone",671 µg/mL
same,Minimum inhibitory concentration,"[6]; Enterobacter aerogenes OCC720, Casein Hydrolysate",>1343 µg/mL
same,Minimum inhibitory concentration,"[6]; Enterobacter aerogenes OCC720, Lab-Lemco",336 µg/mL
same,Minimum inhibitory concentration,"[6]; Enterobacter aerogenes OCC720, Proteose Peptone",>1343 µg/mL
same,Minimum inhibitory concentration,"[7]; Salmonella enteritidis OCC723, Bacteriological Peptone",671 µg/mL
same,Minimum inhibitory concentration,"[7]; Salmonella enteritidis OCC723, Casein Hydrolysate",>1343 µg/mL
same,Minimum inhibitory concentration,"[7]; Salmonella enteritidis OCC723, Lab-Lemco",1343 µg/mL
same,Minimum inhibitory concentration,"[7]; Salmonella enteritidis OCC723, Proteose Peptone",1343 µg/mL
same,Minimum inhibitory concentration,"[8]; Salmonella virchow OCC703, Bacteriological Peptone",671 µg/mL
same,Minimum inhibitory concentration,"[8]; Salmonella virchow OCC703, Casein Hydrolysate",>1343 µg/mL
same,Minimum inhibitory concentration,"[8]; Salmonella virchow OCC703, Lab-Lemco",1343 µg/mL
same,Minimum inhibitory concentration,"[8]; Salmonella virchow OCC703, Proteose Peptone",1343 µg/mL
